In patent publication US9938273B2 (Plexxikon Inc., priority 2015, dated 2018) one finds IC50 data, which are given here for 26 compounds.

Structures are written as SMILES.

Assay [1] has as its system MOLM-14 F691L cells, FLT3 ITD and FLT3 F691L. Kind of assay: Cell proliferation assay (CellTiter-Glo), MOLM-14 F691L. Type of assay: cell-based. The note with it: Homo sapiens, 72 h, 3d-Growth, GMean. The essentials: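 Three-day growth at 37 °C, 5% CO2 under compound (1 μM top final, 1:3 dilutions, eight points, 0.2% DMSO), read as ATP luminescence by CellTiter-Glo for IC50. Cells: MOLM-14 with FLT3 ITD plus D835Y or F691L, and IL-3-deprived Ba/F3 transfected with FLT3 ITD/D835Y, 1×10^4 per well.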
(Cellular ATP, detected with luciferase, serves as a proxy for viable cell number.)

Another assay concerns the target T1, FLT3-ITD (Homo sapiens, UniProt P36888).
T1 sequence (P36888 1-993): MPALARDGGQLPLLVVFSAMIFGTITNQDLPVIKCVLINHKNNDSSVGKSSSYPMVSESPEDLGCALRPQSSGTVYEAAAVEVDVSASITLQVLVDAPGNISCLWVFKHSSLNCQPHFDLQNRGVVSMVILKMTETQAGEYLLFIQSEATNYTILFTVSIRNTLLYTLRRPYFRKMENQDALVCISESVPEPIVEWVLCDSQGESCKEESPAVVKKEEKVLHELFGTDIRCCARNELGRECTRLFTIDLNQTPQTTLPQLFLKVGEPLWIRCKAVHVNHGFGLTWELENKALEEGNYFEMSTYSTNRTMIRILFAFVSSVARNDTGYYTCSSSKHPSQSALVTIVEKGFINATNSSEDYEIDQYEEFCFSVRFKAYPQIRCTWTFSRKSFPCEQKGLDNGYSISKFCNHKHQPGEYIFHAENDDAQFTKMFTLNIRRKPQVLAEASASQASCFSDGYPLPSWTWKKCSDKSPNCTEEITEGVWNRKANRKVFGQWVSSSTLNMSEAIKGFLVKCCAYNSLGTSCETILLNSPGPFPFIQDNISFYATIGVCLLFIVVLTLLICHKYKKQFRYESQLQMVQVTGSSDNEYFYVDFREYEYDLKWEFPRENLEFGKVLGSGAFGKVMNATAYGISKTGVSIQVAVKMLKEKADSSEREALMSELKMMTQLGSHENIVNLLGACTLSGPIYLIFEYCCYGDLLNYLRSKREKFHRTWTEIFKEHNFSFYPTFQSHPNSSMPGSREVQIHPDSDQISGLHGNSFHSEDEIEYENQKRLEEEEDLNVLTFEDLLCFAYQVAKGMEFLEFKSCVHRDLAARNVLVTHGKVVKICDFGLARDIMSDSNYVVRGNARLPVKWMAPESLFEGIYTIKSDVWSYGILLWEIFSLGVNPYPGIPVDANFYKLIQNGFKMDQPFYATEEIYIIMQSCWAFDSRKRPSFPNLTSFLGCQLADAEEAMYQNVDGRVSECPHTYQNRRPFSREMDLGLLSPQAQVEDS
Description: AlphaScreen kinase assay with recombinant enzyme, FLT3-ITD. Type of assay: biochemical. The conditions noted are these: 8pt; read-out: FLT3_ITD 8pt: IC50. The method in brief:
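Read-out: AlphaScreen proximity signal at 580 nm (680 nm excitation), lost as peptide tyrosine phosphorylation falls. Substrate Biotin-GG(EEEEY)10EE at 30 nM; IC50 runs at 10 μM (FLT3 mutants) or 100 μM (c-KIT) final. Donor beads 20 min, then acceptor beads 60 min, room temperature.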
On the technique in general: In Alpha technology, singlet oxygen from a donor bead excites a nearby acceptor bead.

As to `CC(C)(C#N)NC(=O)c1cccc(-c2cnc3[nH]c(-c4ccc(N5CCOCC5)nc4)cc3c2)n1` [Compound P-0197, N-(1-cyano-1-methyl-ethyl)-6-[2-(6-morpholino-3-pyridyl)-1H-pyrrolo[2,3-b]pyridin-5-yl]pyridine-2-carboxamide], the half-maximal inhibitory concentration (IC50) (in assay [1]; on FLT3-ITD) was 0.0001 to 10 µM each time.

For `NC1CCC(NS(=O)(=O)c2cccc(-c3cnc4[nH]c(-c5ccccc5)cc4c3)n2)CC1` (centres unmarked) [Compound P-0088, N-(4-aminocyclohexyl)-6-(2-phenyl-1H-pyrrolo[2,3-b]pyridin-5-yl)pyridine-2-sulfonamide], the IC50 (in assay [1]; at FLT3-ITD) was 0.0001 to 10 µM each time. On to `Cc1nn(C(C)C)cc1-c1[nH]c2ncc(-c3cccc(C(=O)NC(C)(C)C#N)n3)cc2c1Cl` [Compound P-0192], for which the IC50 (in assay [1]; at FLT3-ITD) was 0.0001 to 10 µM each time.

For the compound `COc1ncc(-c2cc3cc(-c4cccc(C(=O)NC(C)(C)C#N)n4)cnc3[nH]2)cn1` [Compound P-0196, N-(1-cyano-1-methyl-ethyl)-6-[2-(2-methoxypyrimidin-5-yl)-1H-pyrrolo[2,3-b]pyridin-5-yl]pyridine-2-carboxamide], the IC50 (in assay [1]; at FLT3-ITD) was 0.0001 to 10 µM throughout. Regarding `CC(C)Oc1ncc(-c2cc3cc(-c4cccc(C(=O)NC(C)(C)C#N)n4)cnc3[nH]2)cn1` [Compound P-0191, N-(1-cyano-1-methyl-ethyl)-6-[2-(2-isopropoxypyrimidin-5-yl)-1H-pyrrolo[2,3-b]pyridin-5-yl]pyridine-2-carboxamide], the IC50 (in assay [1]; on FLT3-ITD) was 0.0001 to 10 µM each time. Take `CC(C)(C#N)NC(=O)c1cccc(-c2cnc3[nH]c(-c4cscn4)cc3c2)n1` [Compound P-0167, N-(1-cyano-1-methyl-ethyl)-6-(2-thiazol-4-yl-1H-pyrrolo[2,3-b]pyridin-5-yl)pyridine-2-carboxamide]: the IC50 (in assay [1]; on FLT3-ITD) was 0.0001 to 10 µM each time. For `C#Cc1cc2cc(-c3cccc(S(=O)(=O)NC4CC4)c3)cnc2[nH]1` [Compound P-0004, N-cyclopropyl-3-(2-ethynyl-1H-pyrrolo[2,3-b]pyridin-5-yl)benzenesulfonamide], the IC50 (usually the point on the concentration scale where inhibition reaches its midpoint) in assay [1] fell in the range of 0.0001 to 10 µM.

As to `O=S(=O)(NC1CC1)c1cccc(-c2cnc3[nH]c(C#CC4CCCCC4)cc3c2)c1` [Compound P-0010, 3-[2-(2-cyclohexylethynyl)-1H-pyrrolo[2,3-b]pyridin-5-yl]-N-cyclopropyl-benzenesulfonamide], in assay [1], the IC50 lay within 0.0001 to 10 µM. As for `CNC1CCN(C(=O)c2cccc(-c3cnc4[nH]c(-c5cnn(CC(F)(F)F)c5)cc4c3)n2)C1` (centres unmarked) [Compound P-0061, [3-(methylamino)pyrrolidin-1-yl]-[6-[2-[1-(2,2,2-trifluoroethyl)pyrazol-4-yl]-1H-pyrrolo[2,3-b]pyridin-5-yl]-2-pyridyl]methanone], at FLT3-ITD, the half-maximal inhibitory concentration (IC50) was in the range of 0.0001 to 10 µM. As to `CN1CCC(NC(=O)c2cccc(-c3cnc4[nH]c(-c5ccccc5)cc4c3)n2)C1` (centres unmarked) [Compound P-0064, N-(1-methylpyrrolidin-3-yl)-6-(2-phenyl-1H-pyrrolo[2,3-b]pyridin-5-yl)pyridine-2-carboxamide], the IC50 on FLT3-ITD fell in the range of 0.0001 to 10 µM.

Take `CN1CC(NC(=O)c2cccc(-c3cnc4[nH]c(-c5ccccc5)cc4c3)n2)C1` [Compound P-0075, N-(1-methylazetidin-3-yl)-6-(2-phenyl-1H-pyrrolo[2,3-b]pyridin-5-yl)pyridine-2-carboxamide]: the IC50 on FLT3-ITD lay in the range of 0.0001 to 10 µM. As to `CN(C)C1CCN(C(=O)c2cccc(-c3cnc4[nH]c(-c5ccccc5)cc4c3)n2)C1` (centres unmarked) [Compound P-0104, [3-(dimethylamino)pyrrolidin-1-yl]-[6-(2-phenyl-1H-pyrrolo[2,3-b]pyridin-5-yl)-2-pyridyl]methanone], the IC50 on FLT3-ITD is 0.0001 to 10 µM. Same read-out and setting: the same measure for `O=S(=O)(NC1CCNC1)c1cccc(-c2cnc3[nH]c(-c4ccccc4)cc3c2)n1` (centres unmarked) [Compound P-0072, 6-(2-phenyl-1H-pyrrolo[2,3-b]pyridin-5-yl)-N-pyrrolidin-3-yl-pyridine-2-sulfonamide]: 0.0001 to 10 µM. Turning to `CNC1CCN(C(=O)c2n[nH]c3ccc(-c4cnc5[nH]c(-c6ccccc6)cc5c4)cc23)C1` (centres unmarked) [Compound P-0028, [3-(methylamino)pyrrolidin-1-yl]-[5-(2-phenyl-1H-pyrrolo[2,3-b]pyridin-5-yl)-1H-indazol-3-yl]methanone], the IC50 on FLT3-ITD is 0.0001 to 10 µM.

`N[C@H]1CCN(C(=O)c2n[nH]c3ccc(-c4cnc5[nH]c(-c6ccccc6)cc5c4)cc23)C1` [Compound P-0016, [(3S)-3-aminopyrrolidin-1-yl]-[5-(2-phenyl-1H-pyrrolo[2,3-b]pyridin-5-yl)-1H-indazol-3-yl]methanone]: the IC50 on FLT3-ITD fell in the range of 0.0001 to 10 µM. `CN(C)CC#Cc1cc2cc(-c3cccc(S(=O)(=O)NC4CC4)c3)cnc2[nH]1` [Compound P-0009, N-cyclopropyl-3-[2-[3-(dimethylamino)prop-1-ynyl]-1H-pyrrolo[2,3-b]pyridin-5-yl]benzenesulfonamide]: the IC50 in assay [1] lay within 0.0001 to 10 µM. For the compound `NC1(C(F)(F)F)CCN(C(=O)c2cccc(-c3cnc4[nH]c(-c5ccccc5)cc4c3)n2)C1` (centres unmarked) [Compound P-0077, [3-amino-3-(trifluoromethyl)pyrrolidin-1-yl]-[6-(2-phenyl-1H-pyrrolo[2,3-b]pyridin-5-yl)-2-pyridyl]methanone], the IC50 at FLT3-ITD lay in the range of 0.0001 to 10 µM.

Turning to `CC(C)(NC(=O)c1cccc(-c2cnc3[nH]c(-c4cnn(C5CCNCC5)c4)cc3c2)n1)C(N)=O` [Compound P-0200, N-(2-amino-1,1-dimethyl-2-oxo-ethyl)-6-[2-[1-(4-piperidyl)pyrazol-4-yl]-1H-pyrrolo[2,3-b]pyridin-5-yl]pyridine-2-carboxamide], the 50% inhibitory concentration (IC50) at FLT3-ITD lay within 0.0001 to 10 µM. The same measure, in the same setting: the same measure for `O=S(=O)(NC1CNC1)c1cccc(-c2cnc3[nH]c(-c4ccccc4)cc3c2)n1` [Compound P-0071, N-(azetidin-3-yl)-6-(2-phenyl-1H-pyrrolo[2,3-b]pyridin-5-yl)pyridine-2-sulfonamide]: 0.0001 to 10 µM; for `O=C(c1cccc(-c2cnc3[nH]c(-c4ccccc4)cc3c2)n1)N1CCC(C(F)(F)F)C1` (centres unmarked) [Compound P-0103, [6-(2-phenyl-1H-pyrrolo[2,3-b]pyridin-5-yl)-2-pyridyl]-[3-(trifluoromethyl)pyrrolidin-1-yl]methanone]: 0.0001 to 10 µM; for `O=C(c1cccc(-c2cnc3[nH]c(-c4ccccc4)cc3c2)n1)N1CCC(N2CCOCC2)C1` (centres unmarked) [Compound P-0102, (3-morpholinopyrrolidin-1-yl)-[6-(2-phenyl-1H-pyrrolo[2,3-b]pyridin-5-yl)-2-pyridyl]methanone]: 0.0001 to 10 µM. On to `CONC(=O)c1cccc(-c2cnc3[nH]c(-c4ccccc4)cc3c2)c1` [Compound P-0003, N-methoxy-3-(2-phenyl-1H-pyrrolo[2,3-b]pyridin-5-yl)benzamide], for which the IC50 on FLT3-ITD is 0.0001 to 10 µM. The same measure, in the same setting: the same measure for `NC1CCC(NC(=O)c2cccc(-c3cnc4[nH]c(-c5ccccc5)cc4c3)n2)CC1` (centres unmarked) [Compound P-0018, N-(4-aminocyclohexyl)-6-(2-phenyl-1H-pyrrolo[2,3-b]pyridin-5-yl)pyridine-2-carboxamide]: 0.0001 to 10 µM; for `CCOC(=O)C1CCN(C(=O)c2cccc(-c3cnc4[nH]c(-c5ccccc5)cc4c3)n2)CC1` [Compound P-0025, ethyl 1-[6-(2-phenyl-1H-pyrrolo[2,3-b]pyridin-5-yl)pyridine-2-carbonyl]piperidine-4-carboxylate]: 0.0001 to 10 µM; for `CC(=O)NC1CCN(C(=O)c2cccc(-c3cnc4[nH]c(-c5ccccc5)cc4c3)n2)CC1` [Compound P-0020, N-[1-[6-(2-phenyl-1H-pyrrolo[2,3-b]pyridin-5-yl)pyridine-2-carbonyl]-4-piperidyl]acetamide]: 0.0001 to 10 µM. Still for that read-out and setting: the same measure for `CNC(=O)Nc1ccc(-c2cnc3[nH]c(-c4ccccc4)cc3c2)cc1` [Compound P-0006, 1-methyl-3-[4-(2-phenyl-1H-pyrrolo[2,3-b]pyridin-5-yl)phenyl]urea]: 0.0001 to 10 µM.
